Data as given in doi:10.1101/2024.08.19.608619, “Discovery of potent SARS-CoV-2 nsp3 macrodomain inhibitors uncovers lack of translation to cellular antiviral response” (bioRxiv, 2024).
In brackets after ≈: the same amount, converted by molar mass. Several values for one entry are separate records, joined by “and”; a condition that tells them apart may be missing. Identical values can stand only once. Like-named read-outs stand apart in the source and are kept apart here.

How the values were obtained:
iPSC pneumocytes = iPSC pneumocytes cytotoxicity; format: cell-based; conditions: for perc_max_measured: highest measured response of the dose series; for perc_min_measured: lowest measured response of the dose series
Source text: Supplement media-1.zip/Cytotoxicity.csv, table | column: cc10; cc50; perc_min_measured; perc_max_measured

[1] = Hepatic microsomal stability, HLM; format: in vitro ADME, human; conditions: In vitro human liver microsomal stability; for perc_remaining_no_cofactor: no cofactor
in vitro [2] = conditions: human, hela-ace2 cells, 50.0
HeLa-ACE2 cells = conditions: for perc_max_measured: highest measured response of the dose series; for perc_min_measured: lowest measured response of the dose series
[3] = Hepatic microsomal stability, MLM; format: in vitro ADME
SARS-CoV-2 = assay: Antiviral effect in iPSC-derived pneumocyte system; format: cell-based; conditions: iPSC pneumocytes SARS-CoV-2 antiviral effect; for perc_max_measured: maximum measured response of dose series; for perc_min_measured: minimum measured response of dose series
[4] = In vitro kinetic solubility; conditions: In vitro kinetic solubility, ph 7.4
in vitro [5] = assay: in vitro; set-up: Cytotoxicity in iPSC-derived pneumocytes, CC50; conditions: human, ipsc-derived pneumocytes, read-out: 50.0
Source text: Finally, we consider the hypothesis that interferon response triggers ADP-ribosylation, thus profiling the compounds in enhanced and physiologically relevant interferon environments could reveal detectable antiviral effects. […] Furthermore, HeLa-ACE2 cells, and all cancerous cell lines, display defective innate immune response ([1]). As such, we also assess our compound in a primary-like iPSC-derived pneumocyte system (Figure 7C), showing likewise a lack of antiviral activity in this physiologically relevant innate immunity system.

[6] = tested on: SARS-CoV-2, isolate USA-WA1/2020; assay: microbe, parasite or virus in culture; format: cell-based; conditions: HeLa-ACE2 SARS-CoV-2 antiviral effect without P-gp inhibitor; for perc_max_measured: maximum measured response of dose series; for perc_min_measured: minimum measured response of dose series; for EC50: read-out: ec50; for EC90: read-out: ec90
[7] = Permeability Papp (AB) MDR1/MDCKII; conditions: for perc_recovery_a_to_b_mean / perc_recovery_a_to_b_inhibitor_mean: recovery A to B; for papp_b_to_a_mean: B to A; for perc_recovery_b_to_a_mean / perc_recovery_b_to_a_inhibitor_mean: recovery B to A; for perc_recovery_a_to_b_inhibitor_mean / perc_recovery_b_to_a_inhibitor_mean: MDR1-MDCKII
LogD = conditions: pH 7.4; In vitro LogD
[8] = protocol iPSC pneumocytes cytotoxicity
[9] = protocol HeLa-ACE2 cytotoxicity
[10] = In vitro mouse liver microsomal stability
[11] = In vitro mouse liver microsomal stability, no cofactor
[12] = In vitro MDR1-MDCKII permeability, no inhibitor

Structure (SMILES) | CC50 (iPSC pneumocytes; [8]) [µM] | clint [1] [µL/min/mg] | perc_remaining [1] [%] | t_half [1] [min] | perc_remaining_no_cofactor [1] [%] | perc_max_measured (HeLa-ACE2 cells; [9]) | perc_min_measured (HeLa-ACE2 cells; [9]) | clint [3, 10] [µL/min/mg] | perc_remaining [3, 10] [%] | t_half [3, 10] [min] | perc_max_measured (SARS-CoV-2) | perc_min_measured (SARS-CoV-2) | solubility_mean [4] [µM] | perc_max_measured [6] | perc_min_measured [6] | EC50 [6] | EC90 [6] | logd (LogD) | EC50 (SARS-CoV-2) [µM] | EC90 (SARS-CoV-2) [µM] | further results
CC(C)[C@@H](Nc1ncnc2[nH]c(-c3cnn(C)c3C#N)cc12)c1ccc2c(c1)OCCO2 (racemic) [ASAP-0008275] | > 50 | 74.0 | 25.0 | 22.6 | 111.0 | 136.373% | 77.442% | 218.0 | 3.0 | 7.7 | 108.15% and 116.315% | 1.229% and 8.563% | 17 (≈ 7.3 µg/mL) | 109.522% | 3.811% and 0.0% | 1.73 µM and 1.72 µM | 4.31 µM and 4.23 µM | 3.0 |  |  | cc10 (iPSC pneumocytes; [8]): 13.408 µM; perc_max_measured (iPSC pneumocytes; [8]): 110.873% and 99.023%; perc_min_measured (iPSC pneumocytes; [8]): 69.382% and 78.095%; CC50 at 24 h (in vitro [2]): > 50 µM; CC50 (HeLa-ACE2 cells; [9]): > 50 µM; cc10 (HeLa-ACE2 cells; [9]): > 50.0 µM; perc_remaining_no_cofactor ([3]; In vitro mouse liver microsomal stability; no cofactor): 97.0%; CC50 (in vitro [5]; ASAP-0008327-001=ASAP-0008275-001): > 50 µM; papp_a_to_b_mean ([7]; In vitro MDR1-MDCKII permeability, A to B, mean): 4.2 ×10⁻⁶ cm/s; perc_recovery_a_to_b_mean ([7]; In vitro MDR1-MDCKII permeability, mean): 36.0%
CC(C)[C@@H](Nc1ncnc2[nH]c(-c3cnn(CC(N)=O)c3)cc12)c1ccc2c(n1)OCCO2 (single isomer, unassigned) [ASAP-0012315] |  | 18.0 | 77.0 | 91.8 | 95.0 | 91.832% | 81.293% | 9.0 | 90.0 | 182.3 | 94.962% | 56.467% | 395 (≈ 177 µg/mL) | 122.738% | 101.22% | > 20 µM | > 20 µM | 2.4 | > 50 | > 50 | CC50 (iPSC pneumocytes): > 50 µM; cc10 (iPSC pneumocytes): > 50.0 µM; perc_max_measured (iPSC pneumocytes): 105.354%; perc_min_measured (iPSC pneumocytes): 100.058%; perc_remaining_no_cofactor [3, 11]: 102.0%; CC50 (in vitro [5]; ASAP-0008327-001=ASAP-0012315-001): > 50 µM; papp_b_to_a_mean [7, 12]: 2.3 ×10⁻⁶ cm/s and 3.5 ×10⁻⁶ cm/s; perc_recovery_a_to_b_mean [7, 12]: 59.0% and 72.1% and 66.1%; perc_recovery_b_to_a_mean [7, 12]: 78.3% and 92.2%; perc_recovery_a_to_b_inhibitor_mean ([7]; with inhibitor Cyclosporin A): 64.5%; perc_recovery_a_to_b_inhibitor_mean ([7]; with inhibitor Verapamil): 96.8%; perc_recovery_b_to_a_inhibitor_mean ([7]; with inhibitor Cyclosporin A): 57.4%; perc_recovery_b_to_a_inhibitor_mean ([7]; with inhibitor Verapamil): 85.3%
CC(C)[C@@H](Nc1ncnc2[nH]c(C(=O)N[C@H]3CCN(C)C3)cc12)c1ccc2c(c1)S(=O)(=O)CCC2 (single isomer, unassigned) [ASAP-0012336] |  | 26.0 | 66.0 | 64.0 | 107.0 | 90.418% | 77.593% | 4.0 | 92.0 | 433.8 | 114.501% | 59.767% | 392 (≈ 195 µg/mL) | 102.123% | 84.181% | > 20 µM | > 20 µM | 1.5 | > 50 | > 50 | CC50 (iPSC pneumocytes): > 50 µM; cc10 (iPSC pneumocytes): > 50.0 µM; perc_max_measured (iPSC pneumocytes): 106.87%; perc_min_measured (iPSC pneumocytes): 91.721%; CC50 (HeLa-ACE2 cells; [9]): > 20 µM; cc10 (HeLa-ACE2 cells; [9]): > 20.0 µM; perc_remaining_no_cofactor [3, 11]: 92.0%; CC50 (in vitro [5]; ASAP-0008327-001=ASAP-0012336-001): > 50 µM; papp_b_to_a_mean [7, 12]: 0.038 ×10⁻⁶ cm/s; efflux_ratio [7, 12]: 0.5; perc_recovery_a_to_b_mean [7, 12]: 53.5% and 74.5%; perc_recovery_b_to_a_mean [7, 12]: 66.7%; perc_recovery_a_to_b_inhibitor_mean ([7]; with inhibitor Verapamil): 95.9%; perc_recovery_b_to_a_inhibitor_mean ([7]; with inhibitor Verapamil): 77.9%
Cc1ncc(-c2cc3c(N[C@@H](c4ccc5c(c4)OCCO5)C(C)C)ncnc3[nH]2)cn1 [ASAP-0008490] | > 50 |  |  |  |  | 110.055% and 97.495% | 79.698% and 83.505% |  |  |  | 160.084% | 9.251% |  | 95.537% and 100.014% |  | 4.51 µM | > 20 µM |  | 15.7 | 36 | cc10 (iPSC pneumocytes; [8]): > 50.0 µM; perc_max_measured (iPSC pneumocytes; [8]): 94.665%; perc_min_measured (iPSC pneumocytes; [8]): 63.131%; CC50 at 24 h (in vitro [2]): > 20 µM; CC50 (HeLa-ACE2 cells): > 20 µM; cc10 (HeLa-ACE2 cells): > 20.0 µM; CC50 (in vitro [5]; ASAP-0008327-001=ASAP-0008490-001): > 50 µM
